The nature of data set [1]: Drug concentration in the plasma of the patients after the end of the treatment. The following applies: human, in vivo, after 12 weeks of 1 to 30 mg dextromethorphan per day. The method, then: Both groups were treated with drug. The course of treatment for the group taking dextromethorphan and sodium valproate (BDDM group) was 1 to 30 mg of dextromethorphan and 500 to 2500 mg of sodium valproate per day for 12 weeks. The course of treatment for the group taking sodium valproate and placebo (BDPl group) was 500-2500 mg of sodium valproate and placebo per day for 12 weeks. After the end of the treatment, the concentrations of dextromethorphan in the plasma of the patients were about 10-50 ng/ml (0.05-0.2 μM), and the concentrations of sodium valproate in the plasma were about 50-100 μg/dl.

The test system of data set [2] is patients with bipolar II disorder. Description: Continuous Performance Test (Conner's CPT II), sustained attention. The settings on record: 12 weeks versus baseline, result in words. The format is in vivo, human. The text has this:
The present invention recruited patients diagnosed with bipolar II disorder (BD-II). The patients were diagnosed by psychiatrists using the improved Chinese version of the Schedule of Affective Disorder and Schizophrenia-Life Time (SADS-L) with good inter-rater reliability and the Diagnostic and Statistical Manual of Mental Disorders, Fourth Edition, Text Revision (DSM-IV-TR) to confirm that the patient meets the integration points of bipolar II disorder in the DSM-IV-TR.
The purpose of the test of the present invention was to test whether dextromethorphan (DM) and sodium valproate (trade name: Depakine) could improve the cognitive function of patients. Therefore, the patients with bipolar II disorder in the present invention were divided into two groups: one group was the patients taking dextromethorphan and sodium valproate together (BDDM), and the other group was the patients taking sodium valproate and placebo (BDPl). Before the patients of the two group took the drug, the present invention first used the following evaluation test to perform a basic evaluation of the patients of the two groups.
The present invention used the computer version of Conner's CPT II 20 which was used to detect the sustained attention of the patients. In the reliability of Conner's CPT II, the split-half reliability ranged from 0.66 to 0.95, and the retest reliability after three months was […]. […]

For the molecule `COc1ccc2c(c1)[C@]13CCCC[C@@H]1[C@H](C2)N(C)CC3` [dextromethorphan], the concentration at 12 weeks was in the range of 10 to 50 ng/mL in data set [1] and 50 to 200 nM in data set [1] (value in brackets). Moreover, in data set [2], the “sustained attention (scores of CPT) after the end of the course of treatment” value is listed as “improvement in sustained attention was due to the efficacy of dextromethorphan”.

The record behind these values is patent publication US20250375437A1, “METHODS FOR IMPROVING COGNITIVE FUNCTION” (priority 2024, published 2025).
